Key:
Type in all cases: biochemical
JAK3 = target: T1, JAK3 (Homo sapiens, UniProt P52333); assay: JAK kinase assay (HTRF, phosphorylation of synthetic peptide), JAK3; conditions: catalytic domain, ATP at Km (2 μM); read-out: JAK3 kinase inhibitory activity (EC50)
T1 construct: All four purified enzymes contain only the catalytic domain; His (N); purchased Carna Biosciences, Inc; host or cells: baculovirus expression system
Description: (§1) Human baculovirus-expressed JAK1, 2, 3 and TYK2 were purchased from Carna Biosciences, Inc. All four purified enzymes contain only the catalytic domain. JAK1 (aa 850-1154) and TYK2 (aa 871-1187) are expressed with an N-terminally fused GST-tag, and JAK2 and JAK3 with an N-terminally fused His-tag.
(§2) Inhibition of phosphorylation of a synthetic peptide was measured in an HTRF-based assay using the TK substrate-Biotin from the Cisbio HTRFKinEASE TK kit. First, 2 μl of TK solution (TK substrate-biotin in kinase buffer [1× enzymatic buffer from HTRFKinEASE TK kit, 1 mM DTT]) is added to a plate containing 1 μl prediluted compound (final assay concentration DMSO: 0.75%). Then, 5 μl kinase-ATP mix (prepared in kinase buffer) is added to the wells and the plates are incubated at RT for 20-30 min. For all four kinases a concentration of ATP that corresponded to the Km for ATP was used. The final concentrations of buffers, substrate, kinase and ATP were: JAK1: 50 mM Hepes buffer pH 7.0, 0.01% BSA, 10 mM MgCl2, 1 mM DTT, 7 μM ATP, 50 nM SEB, 1 μM TK Substrate-Biotin and 5 ng JAK1; JAK2: 50 mM Hepes buffer pH 7.0, 0.01% BSA, 5 mM MgCl2, 1 mM DTT, 4 μM ATP, 1 μM TK Substrate-Biotin and 0.1 ng JAK2; JAK3: 50 mM Hepes buffer pH 7.0, 0.01% BSA, 5 mM MgCl2, 1 mM DTT, 2 μM ATP, 1 μM TK Substrate-Biotin and 0.3 ng JAK3; TYK2: 50 mM Hepes buffer pH 7.0, 0.01% BSA, 5 mM MgCl2, 1 mM DTT, 13 μM ATP, 50 nM SEB, 1 μM TK Substrate-Biotin and 0.8 ng TYK2. Thereafter, the kinase reaction is stopped by adding 4 μl detection mix (final concentrations: 50 mM Hepes buffer pH 7.0, 0.01% BSA, 0.8 M KF, 20 mM EDTA, 42 nM Streptavidin-XL665 and 1:400 STK Ab Cryptate) and the plates are incubated overnight in the dark. The HTRF signal is read using an Envision plate reader.

JAK1 = target: T2, JAK1 (Homo sapiens, UniProt P23458); assay: JAK kinase assay (HTRF, phosphorylation of synthetic peptide), JAK1; conditions: catalytic domain, ATP at Km (7 μM); read-out: JAK1 kinase inhibitory activity (EC50)
T2 construct: JAK1 (aa 850-1154) and TYK2 (aa 871-1187) are expressed with an N-terminally fused GST-tag; GST (N); purchased Carna Biosciences, Inc; host or cells: baculovirus expression system
Description: as §1, §2

JAK2 = target: T3, JAK2 (Homo sapiens, UniProt O60674); assay: JAK kinase assay (HTRF, phosphorylation of synthetic peptide), JAK2; conditions: catalytic domain, ATP at Km (4 μM); read-out: JAK2 kinase inhibitory activity (EC50)
T3 construct: All four purified enzymes contain only the catalytic domain; His (N); purchased Carna Biosciences, Inc; host or cells: baculovirus expression system
Description: as §1, §2

TYK2 = target: T4, TYK2 (Homo sapiens, UniProt P29597); assay: JAK kinase assay (HTRF, phosphorylation of synthetic peptide), TYK2; conditions: catalytic domain, ATP at Km (13 μM); read-out: TYK2 kinase inhibitory activity (EC50)
T4 construct: JAK1 (aa 850-1154) and TYK2 (aa 871-1187) are expressed with an N-terminally fused GST-tag; GST (N); purchased Carna Biosciences, Inc; host or cells: baculovirus expression system
T4 sequence (P29597 871-1187): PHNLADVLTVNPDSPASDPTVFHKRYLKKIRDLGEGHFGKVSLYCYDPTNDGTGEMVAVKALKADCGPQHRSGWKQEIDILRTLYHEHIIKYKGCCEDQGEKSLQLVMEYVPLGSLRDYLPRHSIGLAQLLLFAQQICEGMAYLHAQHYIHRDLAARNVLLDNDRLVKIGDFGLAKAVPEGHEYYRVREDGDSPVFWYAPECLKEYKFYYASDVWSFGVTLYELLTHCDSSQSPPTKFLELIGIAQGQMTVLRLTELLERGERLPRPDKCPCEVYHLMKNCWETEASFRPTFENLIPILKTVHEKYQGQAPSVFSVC
Description: as §1, §2

T2 sequence (P23458 850-1154): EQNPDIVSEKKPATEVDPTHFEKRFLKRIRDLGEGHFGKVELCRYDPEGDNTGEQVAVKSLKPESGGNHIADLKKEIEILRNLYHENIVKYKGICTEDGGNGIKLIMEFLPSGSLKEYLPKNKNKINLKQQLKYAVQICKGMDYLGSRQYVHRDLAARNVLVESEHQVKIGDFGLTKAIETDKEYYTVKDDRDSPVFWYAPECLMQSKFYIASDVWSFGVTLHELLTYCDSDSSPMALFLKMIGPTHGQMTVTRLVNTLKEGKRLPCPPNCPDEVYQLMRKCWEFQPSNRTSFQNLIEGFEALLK
T3 sequence (O60674 849-1124 limits assumed): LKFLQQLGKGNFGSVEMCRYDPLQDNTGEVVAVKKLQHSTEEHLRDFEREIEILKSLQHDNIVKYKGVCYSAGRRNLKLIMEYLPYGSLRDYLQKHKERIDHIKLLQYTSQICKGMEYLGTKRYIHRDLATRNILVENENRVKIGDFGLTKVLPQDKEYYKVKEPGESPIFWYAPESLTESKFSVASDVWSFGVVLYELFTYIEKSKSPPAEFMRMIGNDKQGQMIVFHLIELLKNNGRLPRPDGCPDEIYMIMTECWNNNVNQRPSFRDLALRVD
T1 sequence (P52333 822-1111 limits assumed): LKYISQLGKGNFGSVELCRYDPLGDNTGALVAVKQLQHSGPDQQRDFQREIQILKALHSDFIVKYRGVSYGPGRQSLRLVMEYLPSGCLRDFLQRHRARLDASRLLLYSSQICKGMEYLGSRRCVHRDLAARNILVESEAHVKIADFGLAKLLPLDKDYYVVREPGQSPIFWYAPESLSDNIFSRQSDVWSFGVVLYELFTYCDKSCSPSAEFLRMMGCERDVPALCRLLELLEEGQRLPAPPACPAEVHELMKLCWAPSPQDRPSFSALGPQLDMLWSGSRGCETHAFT

O=S(=O)(N(CCc1ccccc1)CCn1cccn1)N1CCN(c2ncnc3[nH]ccc23)CC12CC2 [Example 24, 7-(7H-Pyrrolo[2,3-d]pyrimidin-4-yl)-4,7-diaza-spiro[2.5]octane-4-sulfonic acid phenethyl-(2-pyrazol-1-yl-ethyl)-amide]
EC50 (JAK3): < 100 nM
EC50 (JAK1): < 100 nM
EC50 (JAK2): < 100 nM
EC50 (TYK2): 100 to 500 nM

CCN(C(C)C)S(=O)(=O)N1CCN(c2ncnc3[nH]ccc23)CC12CC2 [Example 95, N-ethyl-N-isopropyl-5-(7H-pyrrolo[2,3-d]pyrimidin-4-yl)-5,8-diazaspiro[2.5]octane-8-sulfonamide]
EC50 (JAK3): 100 to 500 nM
EC50 (JAK1): 100 to 500 nM
EC50 (JAK2): < 100 nM
EC50 (TYK2): > 500 nM

N#CC1CCCN(S(=O)(=O)N2CCN(c3ncnc4[nH]ccc34)CC23CC3)C1 (stereo not shown) [Example 42, 1-[7-(7H-Pyrrolo[2,3-d]pyrimidin-4-yl)-4,7-diaza-spiro[2.5]octane-4-sulfonyl]-piperidine-3-carbonitrile]
EC50 (JAK3): 100 to 500 nM
EC50 (JAK1): < 100 nM
EC50 (JAK2): < 100 nM
EC50 (TYK2): > 500 nM

CN(CCc1ccccc1)S(=O)(=O)N1CCN(c2ncnc3[nH]ccc23)CC12CC2 [Example 58, 7-(7H-Pyrrolo[2,3-d]pyrimidin-4-yl)-4,7-diaza-spiro[2.5]octane-4-sulfonic acid methyl-phenethyl-amide]
EC50 (JAK3): < 100 nM
EC50 (JAK1): < 100 nM
EC50 (JAK2): < 100 nM
EC50 (TYK2): 100 to 500 nM

CN(C(=O)CC1CCS(=O)(=O)C1)S(=O)(=O)N1CCN(c2ncnc3[nH]ccc23)CC12CC2 (stereo not shown) [Example 138, 2-(1,1-dioxothiolan-3-yl)-N-methyl-N-[[5-(7H-pyrrolo[2,3-d]pyrimidin-4-yl)-5,8-diazaspiro[2.5]octan-8-yl]sulfonyl]acetamide]
EC50 (JAK3): 100 to 500 nM
EC50 (JAK1): < 100 nM
EC50 (JAK2): < 100 nM
EC50 (TYK2): > 500 nM

O=S(=O)(N(CCO)CCOc1ccccc1)N1CCN(c2ncnc3[nH]ccc23)CC12CC2 [Example 111, N-(2-hydroxyethyl)-N-(2-phenoxyethyl)-5-(7H-pyrrolo[2,3-d]pyrimidin-4-yl)-5,8-diazaspiro[2.5]octane-8-sulfonamide]
EC50 (JAK3): 100 to 500 nM
EC50 (JAK1): 100 to 500 nM
EC50 (JAK2): < 100 nM
EC50 (TYK2): > 500 nM

CN(C(=O)CC(F)(F)F)S(=O)(=O)N1CCN(c2ncnc3[nH]ccc23)CC12CC2 [Example 129, 3,3,3-trifluoro-N-methyl-N-[[5-(7H-pyrrolo[2,3-d]pyrimidin-4-yl)-5,8-diazaspiro[2.5]octan-8-yl]sulfonyl]propanamide]
EC50 (JAK3): 100 to 500 nM
EC50 (JAK1): < 100 nM
EC50 (JAK2): < 100 nM
EC50 (TYK2): 100 to 500 nM

N#CCCN(CC#N)S(=O)(=O)N1CCN(c2ncnc3[nH]ccc23)CC12CC2 [Example 171, N-(2-cyanoethyl)-N-(cyanomethyl)-5-(7H-pyrrolo[2,3-d]pyrimidin-4-yl)-5,8-diazaspiro[2.5]octane-8-sulfonamide]
EC50 (JAK3): < 100 nM
EC50 (JAK1): < 100 nM
EC50 (JAK2): < 100 nM
EC50 (TYK2): < 100 nM

O=S(=O)(N(CCCO)CCc1ccccc1)N1CCN(c2ncnc3[nH]ccc23)CC12CC2 [Example 5, 7-(7H-Pyrrolo[2,3-d]pyrimidin-4-yl)-4,7-diaza-spiro[2.5]octane-4-sulfonic acid (3-hydroxy-propyl)-phenethyl-amide]
EC50 (JAK3): < 100 nM
EC50 (JAK1): < 100 nM
EC50 (JAK2): < 100 nM
EC50 (TYK2): 100 to 500 nM

O=S(=O)(NCc1ccccc1)N1CCN(c2ncnc3[nH]ccc23)CC12CC2 [Example 147, N-benzyl-5-(7H-pyrrolo[2,3-d]pyrimidin-4-yl)-5,8-diazaspiro[2.5]octane-8-sulfonamide]
EC50 (JAK3): 100 to 500 nM
EC50 (JAK1): < 100 nM
EC50 (JAK2): < 100 nM
EC50 (TYK2): 100 to 500 nM

CN(CCOc1ccc(C#N)cc1)S(=O)(=O)N1CCN(c2ncnc3[nH]ccc23)CC12CC2 [Example 72, N-[2-(4-cyanophenoxy)ethyl]-N-methyl-5-(7H-pyrrolo[2,3-d]pyrimidin-4-yl)-5,8-diazaspiro[2.5]octane-8-sulfonamide]
EC50 (JAK3): 100 to 500 nM
EC50 (JAK1): < 100 nM
EC50 (JAK2): < 100 nM
EC50 (TYK2): > 500 nM

CN(C[C@@H]1CCC(=O)N1)S(=O)(=O)N1CCN(c2ncnc3[nH]ccc23)CC12CC2 [Example 183, N-methyl-N-[[(2S)-5-oxopyrrolidin-2-yl]methyl]-5-(7H-pyrrolo[2,3-d]pyrimidin-4-yl)-5,8-diazaspiro[2.5]octane-8-sulfonamide]
EC50 (JAK3): < 100 nM
EC50 (JAK1): < 100 nM
EC50 (JAK2): < 100 nM
EC50 (TYK2): < 100 nM

COCCN(C1CCC1)S(=O)(=O)N1CCN(c2ncnc3[nH]ccc23)CC12CC2 [Example 103, N-cyclobutyl-N-(2-methoxyethyl)-5-(7H-pyrrolo[2,3-d]pyrimidin-4-yl)-5,8-diazaspiro[2.5]octane-8-sulfonamide]
EC50 (JAK3): 100 to 500 nM
EC50 (JAK1): < 100 nM
EC50 (JAK2): < 100 nM
EC50 (TYK2): 100 to 500 nM

CN(CC1CCCS(=O)(=O)C1)S(=O)(=O)N1CCN(c2ncnc3[nH]ccc23)CC12CC2 (stereo not shown) [Example 76, N-[(1,1-dioxothian-3-yl)methyl]-N-methyl-5-(7H-pyrrolo[2,3-d]pyrimidin-4-yl)-5,8-diazaspiro[2.5]octane-8-sulfonamide]
EC50 (JAK3): < 100 nM
EC50 (JAK1): < 100 nM
EC50 (JAK2): < 100 nM
EC50 (TYK2): 100 to 500 nM

N#CCN(CCc1ccccc1)S(=O)(=O)N1CCN(c2ncnc3[nH]ccc23)CC12CC2 [Example 19, 7-(7H-Pyrrolo[2,3-d]pyrimidin-4-yl)-4,7-diaza-spiro[2.5]octane-4-sulfonic acid cyanomethyl-phenethyl-amide]
EC50 (JAK3): < 100 nM
EC50 (JAK1): < 100 nM
EC50 (JAK2): < 100 nM
EC50 (TYK2): < 100 nM

COc1ccc(/C=N\S(=O)(=O)N2CCN(c3ncnc4[nH]ccc34)CC23CC3)cc1 [Int 49]
EC50 (JAK3): < 100 nM
EC50 (JAK1): < 100 nM
EC50 (JAK2): < 100 nM
EC50 (TYK2): 100 to 500 nM

N#CCCN(C1CC1)S(=O)(=O)N1CCN(c2ncnc3[nH]ccc23)CC12CC2 [Example 41, 7-(7H-Pyrrolo[2,3-d]pyrimidin-4-yl)-4,7-diaza-spiro[2.5]octane-4-sulfonic acid (2-cyano-ethyl)-cyclopropyl-amide]
EC50 (JAK3): < 100 nM
EC50 (JAK1): < 100 nM
EC50 (JAK2): < 100 nM

N#CCCCCN(CCc1ccccc1)S(=O)(=O)N1CCN(c2ncnc3[nH]ccc23)CC12CC2 [Example 20, 7-(7H-Pyrrolo[2,3-d]pyrimidin-4-yl)-4,7-diaza-spiro[2.5]octane-4-sulfonic acid (4-cyano-butyl)-phenethyl-amide]
EC50 (JAK3): < 100 nM
EC50 (JAK1): < 100 nM
EC50 (JAK2): < 100 nM

N#CCCCN(CCc1ccccc1)S(=O)(=O)N1CCN(c2ncnc3[nH]ccc23)CC12CC2 [Example 33, 7-(7H-Pyrrolo[2,3-d]pyrimidin-4-yl)-4,7-diaza-spiro[2.5]octane-4-sulfonic acid (3-cyano-propyl)-phenethyl-amide]
EC50 (JAK3): < 100 nM
EC50 (JAK1): < 100 nM
EC50 (JAK2): < 100 nM

O=S(=O)(NCCO)N1CCN(c2ncnc3[nH]ccc23)CC12CC2 [Example 53, 7-(7H-Pyrrolo[2,3-d]pyrimidin-4-yl)-4,7-diaza-spiro[2.5]octane-4-sulfonic acid (2-hydroxy-ethyl)-amide]
EC50 (JAK3): < 100 nM
EC50 (JAK1): < 100 nM
EC50 (JAK2): < 100 nM

CN(Cc1ccc(C(F)(F)F)cc1)S(=O)(=O)N1CCN(c2ncnc3[nH]ccc23)CC12CC2 [Example 81, N-methyl-5-(7H-pyrrolo[2,3-d]pyrimidin-4-yl)-N-[[4-(trifluoromethyl)phenyl]methyl]-5,8-diazaspiro[2.5]octane-8-sulfonamide]
EC50 (JAK1): < 100 nM
EC50 (JAK2): < 100 nM
EC50 (TYK2): > 500 nM

From patent US9233964B2, “Sulfamide piperazine derivatives as protein tyrosine kinase inhibitors and pharmaceutical use therof” (LEO PHARMA A/S, priority 2011, dated 2016)
